# Test results as given in patent publication US10729741B2, “Methods of treating burns with i.v. cP12 in a window from 2 to 6 hours after injury” (NeoMatrix Therapeutics Inc., priority 2017, dated 2020).
# Read-outs that look alike come from different tables or passages of the source. Residues, ends and D or L forms follow the SMILES beside them.
# Experiments:
# porcine burns = assay: porcine vertical injury progression burn model, wound closure by H&E histology; type: in vivo, pig; conditions: for percent wounds closed (100% re-epithelialization) at 14 d post-burn: compiled data
# Description: For a pathobiology proof-of-principle study we used a validated porcine vertical injury progression burn model (Singer A J, Hirth D, McClain S A, Crawford L, Lin F, and Clark R A. Validation of a vertical progression porcine burn model. J Burn Care Res. 2011; 32(6):638-46). In short, while under general anaesthesia, twenty burns were created on the dorsal skin of four outbred female Yorkshire pigs (˜25 kg) using a 2.5×2.5×7.5 cm, 150 gram aluminum bar equilibrated in an 80° C. water bath and applied for 20 s. The application of the 80° C. aluminum bar caused burn injury a little beyond mid-dermis but often progressed to full-thickness within 3-7 days. All burns were treated with petrolatum, and protected with Tegaderm. In some pigs, a fibronectin (FN)-derived peptide (P12) (SEQ ID NO:1) was infused over 30 min at 1, 2, and 4 h post-burn using doses of 0.003, 0.01 or 0.03 mg/kg. The infused P12 peptide (SEQ ID NO:1) was cyclized (cP12) (SEQ ID NO:2) to prevent exopeptidase digestion from amino- and carboxy-peptidases, which are common in the blood and skin.
# Tissue specimens taken at 14 days after a 30 min infusion of cP12 (SEQ ID NO:2) doses at 0.003, 0.01, 0.03 or 0.1 mg/kg, where infusions began at 1, 4, 8, 12 and 24 h post-burn, have been fixed, stained with hematoxylin and eosin (H&E), and determined whether the surface of the wound was 100% re-epithelialized, i.e. wound closure obtained. The percent wounds totally re-epithelialized at each cP12 (SEQ ID NO:2) dose and each post-burn time of onset of a 30 min infusion are recorded in Table 1. The number of pigs used for each dose and time is denoted in Table 1 by parentheses. Each pig while under general anesthesia had 20 burn wounds administered on the back by a 2.5×2.5 aluminum bar heated to 80° C. and applied to the skin for 20 sec.
# The effect of cP12 (SEQ ID NO:2) doses at 0.003, 0.01, 0.03 or 0.1 mg/kg at 4 h post-burn 30 min-infusion on percent wounds closed at 14d post-burn the 5 experiments performed under these conditions are shown in Table 2. The dates indicate the onset on each experiment, i.e. the date the pigs receive burns.
# [1] = anaphylactoid response with 30 min infusion in pig models; type: in vivo
# Description: Depending on the animal type, cP12 (SEQ ID NO:2) (or linear P12. SEQ ID NO:1) can induce an anaphylactoid response at 2.5 to 10 mg/kg given as an iv bolus or even a rapid infusion. This reaction is less likely with a slower infusion.
# mesenchymal cell = conditions: in solution; intrinsically and synergistically with growth factors, especially PDGF-BB; cited from earlier work
# [2] = tested on: adult human dermal fibroblasts (AHDF); conditions: oxidative and cytokine stress and/or nutrient withdrawal, in the presence of PDGF-BB; cited from earlier work
# burn injury [3] = conditions: rat burn model; cited from earlier work
# burn injury [4] = conditions: cited from earlier work
compound,measurement,setting,value
"CC[C@H](C)[C@@H]1NC(=O)[C@H](Cc2ccc(O)cc2)NC(=O)[C@H](CCCCN)NC(=O)[C@H](CO)NC(=O)[C@H]([C@@H](C)CC)NC(=O)[C@H](Cc2c[nH]cn2)NC(=O)[C@H](CO)NC(=O)[C@@H]2CCCN2C(=O)[C@H](CCCCN)NC(=O)[C@@H]2CCCN2C(=O)[C@H](CCCNC(=N)N)NC(=O)[C@H](Cc2c[nH]c3ccccc23)NC(=O)[C@H](CCCNC(=N)N)NC(=O)[C@H](CC(C)C)NC1=O [cP12] (HELM PEPTIDE1{H.I.S.K.Y.I.L.R.W.R.P.K.P.S}$PEPTIDE1,PEPTIDE1,1:R1-14:R2$$$V2.0)",percent wounds closed (100% re-epithelialization) at 14 d post-burn,"porcine burns; 0.003 mg/kg, 30 min i.v. infusion begun 1 h post-burn",17 (5) percent
same,percent wounds closed (100% re-epithelialization) at 14 d post-burn,"porcine burns; 0.003 mg/kg, 30 min i.v. infusion begun 4 h post-burn",37 (3) percent
same,percent wounds closed (100% re-epithelialization) at 14 d post-burn,"porcine burns; 0.01 mg/kg, 30 min i.v. infusion begun 1 h post-burn",28 (8) percent
same,percent wounds closed (100% re-epithelialization) at 14 d post-burn,"porcine burns; 0.01 mg/kg, 30 min i.v. infusion begun 4 h post-burn",65 (5) percent
same,percent wounds closed (100% re-epithelialization) at 14 d post-burn,"porcine burns; 0.01 mg/kg, 30 min i.v. infusion begun 8 h post-burn",34 (5) percent
same,percent wounds closed (100% re-epithelialization) at 14 d post-burn,"porcine burns; 0.01 mg/kg, 30 min i.v. infusion begun 12 h post-burn",40 (3) percent
same,percent wounds closed (100% re-epithelialization) at 14 d post-burn,"porcine burns; 0.01 mg/kg, 30 min i.v. infusion begun 24 h post-burn",40 (3) percent
same,percent wounds closed (100% re-epithelialization) at 14 d post-burn,"porcine burns; 0.03 mg/kg, 30 min i.v. infusion begun 1 h post-burn",8 (8) percent
same,percent wounds closed (100% re-epithelialization) at 14 d post-burn,"porcine burns; 0.03 mg/kg, 30 min i.v. infusion begun 4 h post-burn",25 (3) percent
same,percent wounds closed (100% re-epithelialization) at 14 d post-burn,"porcine burns; 0.1 mg/kg, 30 min i.v. infusion begun 1 h post-burn",25 (5) percent
same,percent wounds closed (100% re-epithelialization) at 14 d post-burn,"porcine burns; 0.1 mg/kg, 30 min i.v. infusion begun 4 h post-burn",50 (2) percent
same,percent wounds closed (100% re-epithelialization) at 14 d post-burn,"porcine burns; 0.1 mg/kg, 30 min i.v. infusion begun 8 h post-burn",28 (5) percent
same,percent wounds closed (100% re-epithelialization) at 14 d post-burn,"porcine burns; 0.1 mg/kg, 30 min i.v. infusion begun 12 h post-burn",25 (3) percent
same,percent wounds closed (100% re-epithelialization) at 14 d post-burn,"porcine burns; 0.1 mg/kg, 30 min i.v. infusion begun 24 h post-burn",17 (3) percent
same,effectiveness of i.v. treatment by time of administration after wounding,porcine burns; administered 2 to 6 hours after wounding versus one hour or 8 to 12 hours after wounding,more effective
same,anaphylactoid response,[1],avoid any anaphylacoid response
"P12: 14-residue fibronectin fragment PSHISKYILRWRPK, cryptic within fibronectin's first type III repeat (FNIII1) (a 14-residue peptide that is cryptic within the immunoglobulin sandwich type of beta-pleated sheet of fibronectin′s first type III repeat)","mesenchymal cell growth, proliferation and migration",mesenchymal cell,"promotes mesenchymal cell growth, proliferation and migration"
same,protection from cell death,[2],protects
same,burn injury progression,burn injury [3],limits burn injury progression
same,burn injury progression,burn injury [4]; porcine burn model,limits burn injury progression
same,scarring,burn injury [4]; vertical burn injury progression pig model,mitigates scarring
